Measurements taken from DBAASP.
Converted amounts (≈) assume the structure as drawn. Blank lines part the entries; values can stand above or below the molecule they belong to.

Legend:
Assay in all cases: ≥ marks a high value that may be exact or a test limit, other limits are often not marked, values filed in µg/mL are converted to µM
[1] = tested on: Pseudomonas corrugata DSM 7228
[2] = tested on: Clavibacter michiganensis subsp. michiganensis DSM 46294
[3] = tested on: Pseudomonas syringae pv. tomato DC3000
[4] = tested on: Pectobacterium carotovorum subsp. carotovorum DSM 30168
[5] = tested on: Xanthomonas vesicatoria DSM 50861
[6] = tested on: Pseudomonas syringae pv. syringae DSM 10604
Pseudomonas aeruginosa = tested on: Pseudomonas aeruginosa
Staphylococcus aureus = tested on: Staphylococcus aureus
Escherichia coli B = tested on: Escherichia coli B
Bacillus subtilis 168 = tested on: Bacillus subtilis 168
[7] = tested on: Micrococcus luteus CCM 144
[8] = tested on: Candida albicans F7-39/IDE99
[9] = tested on: Staphylococcus aureus ATCC 25923
[10] = tested on: Escherichia coli ATCC 25922
Micrococcus luteus = tested on: Micrococcus luteus
Saccharomyces cerevisiae = tested on: Saccharomyces cerevisiae
[11] = tested on: Pseudomonas aeruginosa ATCC 15692
[12] = tested on: Escherichia coli NCTC 10418
[13] = tested on: Staphylococcus aureus NCTC 10788
[14] = tested on: Candida albicans NCPF 1467
[15] = tested on: Micrococcus luteus ATCC 4698
Klebsiella pneumoniae = tested on: Klebsiella pneumoniae
Escherichia coli K-12 = tested on: Escherichia coli K-12
[16] = tested on: Pseudomonas aeruginosa PAO1
[17] = tested on: Staphylococcus aureus NCTC 8325-4

Compound: CC[C@H](C)[C@H](NC(=O)[C@H](C)NC(=O)CNC(=O)[C@H](Cc1c[nH]c2ccccc12)NC(=O)[C@H](CC(N)=O)NC(=O)[C@@H](N)CC(C)C)C(=O)N[C@@H](CC(C)C)C(=O)N[C@@H](CCCCN)C(=O)N[C@@H](Cc1cnc[nH]1)C(=O)N[C@H](C(=O)N[C@H](C(=O)N[C@@H](CCCCN)C(N)=O)[C@@H](C)CC)[C@@H](C)CC [LNWGAILKHIIK]
MIC (Pseudomonas aeruginosa): 51.7 µM (≈ 72.6 µg/mL)
MIC (Staphylococcus aureus): 10.6 µM (≈ 14.9 µg/mL)
MIC (Escherichia coli B): 3.7 µM (≈ 5.2 µg/mL)
MIC (Bacillus subtilis 168): 1.3 µM (≈ 1.83 µg/mL)
MIC [7]: 1.5 µM (≈ 2.11 µg/mL)
MIC [8]: 7.3 µM (≈ 10.3 µg/mL)

Compound: CC[C@H](C)[C@H](NC(=O)[C@@H]1CCCN1C(=O)[C@H](CCC(N)=O)NC(=O)[C@@H](NC(=O)[C@H](CC(C)C)NC(=O)[C@H](CCCCN)NC(=O)[C@@H]1CCCN1C(=O)CNC(=O)[C@H](CC(C)C)NC(=O)[C@H](CCC(N)=O)NC(=O)[C@H](CCSC)NC(=O)[C@H](C)NC(=O)[C@H](CCCCN)NC(=O)[C@H](CCCN=C(N)N)NC(=O)[C@H](CC(C)C)NC(=O)[C@@H](NC(=O)[C@H](CCCCN)NC(=O)CNC(=O)[C@H](Cc1ccccc1)NC(=O)[C@@H](NC(=O)[C@@H]1CCCN1C(=O)[C@H](CC(C)C)NC(=O)[C@H](Cc1c[nH]c2ccccc12)NC(=O)CN)[C@@H](C)O)[C@@H](C)CC)[C@@H](C)CC)C(=O)O [GWLPTFGKILRKAMQLGPKLIQPI]
MIC [9]: 16 µM (≈ 43.3 µg/mL)
MIC [10]: 1.41 µM (≈ 3.83 µg/mL)
MIC (Micrococcus luteus): 1 µM (≈ 2.71 µg/mL)
MIC (Saccharomyces cerevisiae): ≥ 32 µM
MIC [11]: 11.3 µM (≈ 30.6 µg/mL)

Compound: CC[C@H](C)[C@H](NC(=O)CNC(=O)[C@H](CO)NC(=O)[C@H](C)NC(=O)[C@@H](NC(=O)[C@H](Cc1cnc[nH]1)NC(=O)[C@@H]1CCCN1C(=O)[C@@H](NC(=O)[C@H](CC(C)C)NC(=O)[C@H](CO)NC(=O)[C@H](CC(C)C)NC(=O)[C@@H](N)Cc1ccccc1)[C@@H](C)CC)[C@@H](C)CC)C(=O)N[C@@H](C)C(=O)N[C@@H](CO)C(=O)N[C@@H](CC(C)C)C(=O)N[C@H](C(=O)N[C@@H](CCCCN)C(=O)N[C@@H](CC(N)=O)C(=O)N[C@@H](Cc1ccccc1)C(N)=O)C(C)C [FLSLIPHIASGIASLVKNF]
MIC [12]: ≥ 200 µM
MIC [13]: 5 µM (≈ 10.1 µg/mL)
MIC [14]: 20 µM (≈ 40.5 µg/mL)

Compound: CC[C@H](C)[C@H](NC(=O)CNC(=O)[C@@H]1CCCN1C(=O)[C@H](CC(C)C)NC(=O)[C@H](C)NC(=O)[C@H](CC(N)=O)NC(=O)[C@H](CCCCN)NC(=O)[C@@H](NC(=O)[C@@H](NC(=O)[C@H](CO)NC(=O)[C@H](CC(C)C)NC(=O)[C@@H](NC(=O)CN)C(C)C)C(C)C)[C@@H](C)CC)C(=O)N[C@@H](CCSC)C(=O)N[C@@H](CCCN=C(N)N)C(=O)N[C@@H](Cc1ccccc1)C(=O)N[C@H](C(=O)N[C@@H](C)C(N)=O)[C@@H](C)CC [GVLSVIKNALPGIMRFIA]
MIC [12]: ≥ 33.7 µM
MIC [13]: 4.21 µM (≈ 8 µg/mL)
MIC [14]: 4.21 µM (≈ 8 µg/mL)

Compound: CC[C@H](C)[C@H](NC(=O)[C@H](CO)NC(=O)[C@H](CCCCN)NC(=O)[C@H](CO)NC(=O)[C@H](Cc1cnc[nH]1)NC(=O)[C@H](CCCN=C(N)N)NC(=O)[C@H](Cc1cnc[nH]1)NC(=O)[C@H](CO)NC(=O)[C@H](CCC(N)=O)NC(=O)[C@H](Cc1ccc(O)cc1)NC(=O)[C@H](CC(N)=O)NC(=O)[C@H](CC(N)=O)NC(=O)[C@@H]1CCCN1C(=O)[C@H](CO)NC(=O)CNC(=O)[C@H](Cc1ccccc1)NC(=O)CN)C(=O)N1CCC[C@H]1C(=O)NCC(=O)N[C@@H](CCCN=C(N)N)C(=O)O [GFGSPNNYQSHRHSKSIPGR]
MIC [15]: ≥ 75 µM

Compound: CC[C@H](C)[C@H](NC(=O)[C@H](CO)NC(=O)[C@H](CC(N)=O)NC(=O)[C@@H](NC(=O)[C@H](Cc1ccccc1)NC(=O)[C@H](C)NC(=O)[C@H](CO)NC(=O)[C@H](C)NC(=O)[C@H](Cc1ccccc1)NC(=O)[C@H](CC(=O)O)NC(=O)[C@H](CCCCN)NC(=O)[C@H](C)NC(=O)CNC(=O)[C@@H](NC(=O)[C@H](CCCCN)NC(=O)[C@H](CC(C)C)NC(=O)[C@H](CCCCN)NC(=O)[C@H](CCC(=O)O)NC(=O)[C@H](CC(C)C)NC(=O)[C@H](Cc1ccccc1)NC(=O)CN)[C@@H](C)O)C(C)C)C(=O)N[C@@H](CCCCN)C(N)=O [GFLEKLKTGAKDFASAFVNSIK]
MIC [12]: ≥ 54 µM
MIC [13]: ≥ 216 µM
MIC [14]: ≥ 108 µM

Compound: CC[C@H](C)[C@H](NC(=O)[C@H](C)NC(=O)[C@H](CCCCN)NC(=O)[C@H](Cc1c[nH]c2ccccc12)NC(=O)[C@H](CC(N)=O)NC(=O)[C@@H](N)CCCCN)C(=O)N[C@@H](CC(C)C)C(=O)N[C@@H](CCCCN)C(=O)N[C@@H](Cc1cnc[nH]1)C(=O)N[C@H](C(=O)N[C@H](C(=O)N[C@@H](CCCCN)C(N)=O)[C@@H](C)CC)[C@@H](C)CC [KNWKAILKHIIK]
MIC (Pseudomonas aeruginosa): 65 µM (≈ 96.9 µg/mL)
MIC (Staphylococcus aureus): 65 µM (≈ 96.9 µg/mL)
MIC (Escherichia coli B): 7.8 µM (≈ 11.6 µg/mL)
MIC (Bacillus subtilis 168): 2.5 µM (≈ 3.73 µg/mL)
MIC [7]: 5 µM (≈ 7.45 µg/mL)
MIC [8]: 8 µM (≈ 11.9 µg/mL)

Next, values leading:

MIC [1]: 1.64 µM (≈ 2.5 µg/mL)
MIC [2]: 6.56 µM (≈ 9.99 µg/mL)
MIC [3]: 1.64 µM (≈ 2.5 µg/mL)
MIC [4]: 6.56 µM (≈ 9.99 µg/mL)
MIC [5]: 6.56 µM (≈ 9.99 µg/mL)
MIC [6]: 0.328 µM (≈ 0.5 µg/mL)
Compound: CC[C@H](C)[C@H](NC(=O)[C@H](CC(C)C)NC(=O)[C@H](CCCCN)NC(=O)[C@H](CCCCN)NC(=O)[C@@H](NC(=O)[C@@H](NC(=O)[C@H](CCCCN)NC(=O)[C@H](CCCCN)NC(=O)[C@H](CCCCN)NC(=O)[C@H](CCCCN)NC(=O)[C@H](CCCCN)NC(=O)[C@@H](N)CCCN=C(N)N)[C@@H](C)CC)[C@@H](C)CC)C(N)=O [RKKKKKIIKKLI]

MIC [1]: 0.386 µM (≈ 0.5 µg/mL)
MIC [2]: 7.72 µM (≈ 9.99 µg/mL)
MIC [3]: 0.772 µM (≈ 0.999 µg/mL)
MIC [4]: 7.72 µM (≈ 9.99 µg/mL)
MIC [5]: 7.72 µM (≈ 9.99 µg/mL)
MIC [6]: 0.0772 µM (≈ 0.1 µg/mL)
Compound: CC[C@H](C)[C@H](NC(=O)[C@H](CC(C)C)NC(=O)[C@H](CCCN=C(N)N)NC(=O)[C@H](CCCCN)NC(=O)[C@H](CC(C)C)NC(=O)[C@H](CC(C)C)NC(=O)[C@H](CCCCN)NC(=O)[C@H](CCCCN)NC(=O)[C@H](CCCN=C(N)N)NC(=O)[C@@H](N)CCCCN)C(N)=O [KRKKLLKRLI]

MIC (Klebsiella pneumoniae): > 500 µM
MIC (Escherichia coli K-12): ≥ 500 µM
MIC [16]: > 500 µM
MIC [17]: ≥ 500 µM
Compound: CC(C)C[C@H](NC(=O)[C@H](CCCCN)NC(=O)[C@H](CCCCN)NC(=O)[C@H](CC(C)C)NC(=O)[C@H](CC(C)C)NC(=O)[C@H](CCCCN)NC(=O)[C@H](CCCCN)NC(=O)[C@@H](N)CC(C)C)C(N)=O [LKKLLKKL]

MIC [1]: 0.0772 µM (≈ 0.1 µg/mL)
MIC [2]: 3.86 µM (≈ 5 µg/mL)
MIC [3]: 0.772 µM (≈ 0.999 µg/mL)
MIC [4]: 7.72 µM (≈ 9.99 µg/mL)
MIC [5]: 3.86 µM (≈ 5 µg/mL)
MIC [6]: 0.0772 µM (≈ 0.1 µg/mL)
Compound: CC(C)C[C@H](NC(=O)[C@H](CC(C)C)NC(=O)[C@H](CCCN=C(N)N)NC(=O)[C@H](CCCCN)NC(=O)[C@H](CC(C)C)NC(=O)[C@H](CC(C)C)NC(=O)[C@H](CCCCN)NC(=O)[C@H](CCCCN)NC(=O)[C@H](CCCN=C(N)N)NC(=O)[C@@H](N)CCCCN)C(N)=O [KRKKLLKRLL]
